Experimental data reported in the NIST ThermoML archive (doi:10.1021/acs.jced.5b01057).

Tests used:
[1] = Crystal; visual observation
[2] = mn = molality of the nth substance listed, in mol/kg; conditions: for surface tension liquid-gas: Pendant drop shape; for electrical conductivity: 100 kPa, Liquid, Alternating current cell with electrodes

CCCCCCCCCCCCNC1O[C@H](CO)[C@@H](O[C@@H]2O[C@H](CO)[C@H](O)[C@H](O)[C@H]2O)[C@H](O)[C@H]1O (some centres undefined) [N-dodecyllactosylamine]
Conditions	Triple point temperature [K]
[1]	398.65

CCCCCCCCCCCC[NH2+]C1O[C@H](CO)[C@@H](O[C@@H]2O[C@H](CO)[C@H](O)[C@H](O)[C@H]2O)[C@H](O)[C@H]1O.CCCCCCCCCCCC[NH2+]C1O[C@H](CO)[C@@H](O[C@@H]2O[C@H](CO)[C@H](O)[C@H](O)[C@H]2O)[C@H](O)[C@H]1O.O=C([O-])CCCCC(=O)[O-] (some centres undefined) [N-dodecyllactosylammonium hexanedioate] + O
[2]
Conditions	electrical conductivity [S/m]	surface tension liquid-gas [mN/m]
298.15 K, m1 = 0.0005	–	65.42
298.15 K, m1 = 0.001	–	57.54
298.15 K, m1 = 0.0015	–	52.44
298.15 K, m1 = 0.00159	0.00604	–
298.15 K, m1 = 0.002	–	48.72
298.15 K, m1 = 0.0025	–	46.11
298.15 K, m1 = 0.003	–	43.65
298.15 K, m1 = 0.00317	0.0113	–
298.15 K, m1 = 0.00396	0.0137	–
298.15 K, m1 = 0.004	–	39.6
298.15 K, m1 = 0.00474	0.0159	–
298.15 K, m1 = 0.005	–	36.39
298.15 K, m1 = 0.00552	0.0182	–
298.15 K, m1 = 0.006	–	34.24
298.15 K, m1 = 0.0063	0.0212	–
298.15 K, m1 = 0.007	–	33.1
298.15 K, m1 = 0.00707	0.023	–
323.15 K, m1 = 0.0004	–	62.97
323.15 K, m1 = 0.0006	–	58.09
323.15 K, m1 = 0.001	–	52.58
323.15 K, m1 = 0.0014	–	47.88
323.15 K, m1 = 0.00159	0.00898	–
323.15 K, m1 = 0.002	–	43.86
323.15 K, m1 = 0.0024	–	41.18
323.15 K, m1 = 0.003	–	38.37
323.15 K, m1 = 0.00317	0.0165	–
323.15 K, m1 = 0.004	–	35.16
323.15 K, m1 = 0.00474	0.0258	–
323.15 K, m1 = 0.005	–	32.73
323.15 K, m1 = 0.0063	0.0334	–

CCCCCC(=O)[O-].CCCCCCCCCCCC[NH2+]C1O[C@H](CO)[C@@H](O[C@@H]2O[C@H](CO)[C@H](O)[C@H](O)[C@H]2O)[C@H](O)[C@H]1O (some centres undefined) [N-dodecyllactosylammonium hexanoate] + O
[2], 323.15 K
Conditions	electrical conductivity [S/m]	surface tension liquid-gas [mN/m]
m1 = 0.4	0.001851	58.74
m1 = 0.6	–	52.11
m1 = 0.79	0.00335	–
m1 = 0.8	–	48.69
m1 = 1	–	45.57
m1 = 1.19	0.0048	–
m1 = 1.57	0.00609	–
m1 = 1.6	–	37.41
m1 = 1.96	0.00734	–
m1 = 2	–	34.64
m1 = 2.34	0.00864	–
m1 = 2.4	–	32.22
m1 = 2.72	0.00986	–
m1 = 3	–	30.32
m1 = 3.1	0.01083	–

CCCCCCCCCCCC[NH2+]C1O[C@H](CO)[C@@H](O[C@@H]2O[C@H](CO)[C@H](O)[C@H](O)[C@H]2O)[C@H](O)[C@H]1O.CCCCCCCCCCCC[NH2+]C1O[C@H](CO)[C@@H](O[C@@H]2O[C@H](CO)[C@H](O)[C@H](O)[C@H]2O)[C@H](O)[C@H]1O.O=C([O-])CC(=O)[O-] (some centres undefined) [N-dodecyllactosylammonium propanedioate] + O
[2]
Conditions	electrical conductivity [S/m]	surface tension liquid-gas [mN/m]
298.15 K, m1 = 0.0005	–	68.12
298.15 K, m1 = 0.001	–	61.14
298.15 K, m1 = 0.0015	–	55.99
298.15 K, m1 = 0.00159	0.00597	–
298.15 K, m1 = 0.002	–	51.91
298.15 K, m1 = 0.0025	–	47.5
298.15 K, m1 = 0.003	–	44.9
298.15 K, m1 = 0.00317	0.0115	–
298.15 K, m1 = 0.004	–	40.37
298.15 K, m1 = 0.00474	0.0168	–
298.15 K, m1 = 0.005	–	35.39
298.15 K, m1 = 0.00552	0.0194	–
298.15 K, m1 = 0.006	–	32.88
298.15 K, m1 = 0.0063	0.0227	–
298.15 K, m1 = 0.007	–	30.63
298.15 K, m1 = 0.00707	0.0251	–
298.15 K, m1 = 0.00784	0.0271	–
298.15 K, m1 = 0.008	–	28.97
298.15 K, m1 = 0.00861	0.0288	–
323.15 K, m1 = 0.0004	–	65.73
323.15 K, m1 = 0.0006	–	62.69
323.15 K, m1 = 0.0008	–	59.26
323.15 K, m1 = 0.001	–	56.85
323.15 K, m1 = 0.0014	–	52.69
323.15 K, m1 = 0.00159	0.00958	–
323.15 K, m1 = 0.002	–	47.4
323.15 K, m1 = 0.0024	–	44.7
323.15 K, m1 = 0.003	–	41.32
323.15 K, m1 = 0.00317	0.0164	–
323.15 K, m1 = 0.004	–	37.19
323.15 K, m1 = 0.00474	0.0257	–
323.15 K, m1 = 0.005	–	33.3
323.15 K, m1 = 0.006	–	30.53
323.15 K, m1 = 0.0063	0.0329	–
323.15 K, m1 = 0.007	–	28.43
323.15 K, m1 = 0.00784	0.0387	–
323.15 K, m1 = 0.008	–	26.79

CCC(=O)[O-].CCCCCCCCCCCC[NH2+]C1O[C@H](CO)[C@@H](O[C@@H]2O[C@H](CO)[C@H](O)[C@H](O)[C@H]2O)[C@H](O)[C@H]1O (some centres undefined) [N-dodecyllactosylammonium propanoate] + O
[2], 323.15 K
Conditions	electrical conductivity [S/m]	surface tension liquid-gas [mN/m]
m1 = 0.2	0.001042	67.63
m1 = 0.3	–	63.03
m1 = 0.4	0.001921	58.77
m1 = 0.5	–	53.31
m1 = 0.6	0.00272	50.73
m1 = 0.7	–	45.91
m1 = 0.79	0.00355	–
m1 = 0.8	–	42.76
m1 = 0.9	–	39.81
m1 = 0.99	0.00435	–
m1 = 1	–	37.73
m1 = 1.1	–	35.61
m1 = 1.19	0.00512	–
m1 = 1.2	–	34.86

O [water] + CCC(=O)[O-].CCCCCCCCCCCC[NH2+]C1O[C@H](CO)[C@@H](O[C@@H]2O[C@H](CO)[C@H](O)[C@H](O)[C@H]2O)[C@H](O)[C@H]1O
[2], 323.15 K, m2 = 0
Conditions	electrical conductivity [S/m]	surface tension liquid-gas [mN/m]
–	0.0001534	68.57

O [water] + CCCCCC(=O)[O-].CCCCCCCCCCCC[NH2+]C1O[C@H](CO)[C@@H](O[C@@H]2O[C@H](CO)[C@H](O)[C@H](O)[C@H]2O)[C@H](O)[C@H]1O
[2], 323.15 K, m2 = 0
Conditions	electrical conductivity [S/m]	surface tension liquid-gas [mN/m]
–	0.000255	68.72

O [water] + CCCCCCCCCCCC[NH2+]C1O[C@H](CO)[C@@H](O[C@@H]2O[C@H](CO)[C@H](O)[C@H](O)[C@H]2O)[C@H](O)[C@H]1O.CCCCCCCCCCCC[NH2+]C1O[C@H](CO)[C@@H](O[C@@H]2O[C@H](CO)[C@H](O)[C@H](O)[C@H]2O)[C@H](O)[C@H]1O.O=C([O-])CC(=O)[O-]
[2], m2 = 0
Conditions	surface tension liquid-gas [mN/m]
298.15 K	71.76
323.15 K	68.05

O [water] + CCCCCCCCCCCC[NH2+]C1O[C@H](CO)[C@@H](O[C@@H]2O[C@H](CO)[C@H](O)[C@H](O)[C@H]2O)[C@H](O)[C@H]1O.CCCCCCCCCCCC[NH2+]C1O[C@H](CO)[C@@H](O[C@@H]2O[C@H](CO)[C@H](O)[C@H](O)[C@H]2O)[C@H](O)[C@H]1O.O=C([O-])CCCCC(=O)[O-]
[2], m2 = 0
Conditions	surface tension liquid-gas [mN/m]
298.15 K	72.71
323.15 K	68.94
